{"source": "patent US10342795B2", "about": "“Substituted 4,5,6,7-tetrahydro-pyrazolo[1,5-a]pyrimidine derivatives and 2,3-dihydro-1H-imidazo[1,2-b]pyrazole derivatives as ROS1 inhibitors” (Janssen Pharmaceutica NV, priority 2014, dated 2019)"}
{"molecular_target": "T1, Ros1 enzyme (Homo sapiens, UniProt P08922)", "T1 construct": "0.5 μg/ml Ros1 enzyme", "T1 sequence (P08922 28-2347)": "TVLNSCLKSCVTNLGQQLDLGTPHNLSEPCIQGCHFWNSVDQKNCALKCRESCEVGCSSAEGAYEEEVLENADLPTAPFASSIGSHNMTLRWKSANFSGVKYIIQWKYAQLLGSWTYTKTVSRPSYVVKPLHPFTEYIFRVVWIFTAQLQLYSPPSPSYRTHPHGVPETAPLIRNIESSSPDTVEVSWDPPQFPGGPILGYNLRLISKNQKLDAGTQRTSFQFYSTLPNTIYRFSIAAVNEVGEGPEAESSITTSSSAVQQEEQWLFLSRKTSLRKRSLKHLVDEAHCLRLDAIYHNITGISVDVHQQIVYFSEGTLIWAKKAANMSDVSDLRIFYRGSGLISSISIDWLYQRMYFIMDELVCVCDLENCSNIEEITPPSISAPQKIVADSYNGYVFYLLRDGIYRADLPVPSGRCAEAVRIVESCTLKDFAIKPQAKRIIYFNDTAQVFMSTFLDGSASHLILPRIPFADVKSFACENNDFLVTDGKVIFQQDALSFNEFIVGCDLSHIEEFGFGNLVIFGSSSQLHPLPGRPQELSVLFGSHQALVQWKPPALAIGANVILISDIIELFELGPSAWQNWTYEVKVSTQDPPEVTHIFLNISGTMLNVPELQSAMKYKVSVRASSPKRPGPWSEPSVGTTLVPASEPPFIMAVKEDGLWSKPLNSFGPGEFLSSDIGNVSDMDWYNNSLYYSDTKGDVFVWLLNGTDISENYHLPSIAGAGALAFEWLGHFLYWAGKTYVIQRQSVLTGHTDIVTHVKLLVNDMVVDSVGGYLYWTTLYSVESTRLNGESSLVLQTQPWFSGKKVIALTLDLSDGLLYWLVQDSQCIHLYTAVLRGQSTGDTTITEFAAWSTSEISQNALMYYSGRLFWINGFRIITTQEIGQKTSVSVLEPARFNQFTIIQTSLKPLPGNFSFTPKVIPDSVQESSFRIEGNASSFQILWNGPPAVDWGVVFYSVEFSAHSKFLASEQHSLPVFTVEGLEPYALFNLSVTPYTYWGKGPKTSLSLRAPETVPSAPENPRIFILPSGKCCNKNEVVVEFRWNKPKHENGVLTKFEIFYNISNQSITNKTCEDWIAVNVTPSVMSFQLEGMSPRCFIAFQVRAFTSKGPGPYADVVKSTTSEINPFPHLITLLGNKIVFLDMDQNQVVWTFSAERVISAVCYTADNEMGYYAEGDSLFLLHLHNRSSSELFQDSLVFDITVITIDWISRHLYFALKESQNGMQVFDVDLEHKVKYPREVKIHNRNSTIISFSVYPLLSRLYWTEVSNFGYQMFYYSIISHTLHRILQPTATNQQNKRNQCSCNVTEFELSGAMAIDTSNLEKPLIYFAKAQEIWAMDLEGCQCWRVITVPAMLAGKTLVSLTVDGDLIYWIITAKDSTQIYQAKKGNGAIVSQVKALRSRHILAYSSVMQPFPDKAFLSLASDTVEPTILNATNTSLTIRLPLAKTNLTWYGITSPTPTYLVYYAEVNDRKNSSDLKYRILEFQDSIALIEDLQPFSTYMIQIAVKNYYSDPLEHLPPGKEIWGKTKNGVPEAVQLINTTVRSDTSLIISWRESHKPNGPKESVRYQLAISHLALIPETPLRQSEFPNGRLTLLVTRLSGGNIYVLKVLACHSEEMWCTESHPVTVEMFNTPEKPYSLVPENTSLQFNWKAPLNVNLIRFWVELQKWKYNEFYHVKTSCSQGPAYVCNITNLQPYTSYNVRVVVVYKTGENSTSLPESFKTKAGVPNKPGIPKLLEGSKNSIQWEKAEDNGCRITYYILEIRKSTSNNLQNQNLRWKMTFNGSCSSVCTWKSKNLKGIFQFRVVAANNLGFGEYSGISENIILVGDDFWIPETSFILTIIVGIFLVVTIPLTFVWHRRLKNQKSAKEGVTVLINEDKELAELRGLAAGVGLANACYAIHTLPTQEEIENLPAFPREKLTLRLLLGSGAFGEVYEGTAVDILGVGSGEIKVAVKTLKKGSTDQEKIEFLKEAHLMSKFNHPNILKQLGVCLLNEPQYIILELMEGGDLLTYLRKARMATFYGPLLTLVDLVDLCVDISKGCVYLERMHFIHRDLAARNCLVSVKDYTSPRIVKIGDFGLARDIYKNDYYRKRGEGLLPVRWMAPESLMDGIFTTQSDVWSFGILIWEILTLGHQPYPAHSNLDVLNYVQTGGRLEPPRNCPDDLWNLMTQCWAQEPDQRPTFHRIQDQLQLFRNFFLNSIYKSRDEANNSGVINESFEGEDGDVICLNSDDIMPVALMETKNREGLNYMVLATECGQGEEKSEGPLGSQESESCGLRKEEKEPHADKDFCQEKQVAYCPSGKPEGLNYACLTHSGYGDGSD", "assay": "Ros1 enzymatic assay", "format": "biochemical", "settings": "-log IC50 (M); 20 μM ATP, 120 min at room temperature; read-out: ROS1 pIC50 (converted)", "method": "Compounds were spotted onto white 384-well Proxiplate plus plates (Perkin Elmer) to which 5 μl of enzyme mix (0.5 μg/ml Ros1 enzyme, 50 mM Tris-HCl pH7.5, 1 mM EGTA, 10 mM MgCl2, 0.01% Tween-20) and 5 μl of substrate mix (6 μg/ml IRS-Tide [American Peptide Company], 20 μM ATP, 13.33 μCi/ml ATP (adenosine 5′-triphosphate) P^33, 50 mM Tris-HCl pH7.5, 1 mM EGTA (ethylene glycol-bis(2-aminoethylether)-N,N,N′,N′-tetraacetic acid), 10 mM MgCl2, 0.01% Tween-20) were added. After incubation for 120 minutes at room temperature, 10 μl of stop reaction buffer (5 mM EDTA, 50 μM ATP, 0.1% BSA (bovine serum albumin), 0.1% Triton X-100, 50 mM Tris-HCl pH7.5, 1 mM EGTA, 10 mM MgCl2, 0.01% Tween-20) containing 2 mg/ml streptavidin coupled polystyrene imaging beads (Amersham Biosciences) was added and incubated for 15 minutes at room temperature. Plates were centrifuged for 3 minutes at 1500 rpm and signals detected in a LEADseeker imaging system (GE).", "units": {"IC50": "M"}}
{"smiles": "CC(C)c1ccc(COc2cc(F)c(-c3c(-c4ccncc4)nn4c3NCC4)cc2F)cc1", "note": "[Co. 2]", "IC50": "2.51e-08"}
{"smiles": "CC(C)c1ccc(COc2ccc(-c3c(-c4ccncc4)nn4c3NCC4)c(C#N)c2)cc1", "note": "[Co. 3]", "IC50": "6.31e-08"}
{"smiles": "CC(C)c1ccc(COc2ccc(-c3c(-c4ccncc4)nn4c3NCC4)cn2)cc1", "note": "[Co. 4]", "IC50": "1e-07"}
{"smiles": "CC(C)c1ccc(COc2ccc(-c3c(-c4ccncc4)nn4c3NCC4)c(F)c2)cc1", "note": "[Co. 5]", "IC50": "~1.26e-07"}
{"smiles": "CC(C)c1ccc(COc2ccc(-c3c(-c4ccncc4)nn4c3NCC4)cc2)cc1C#N", "note": "[Co. 6]", "IC50": "2e-07"}
{"smiles": "CC(C)c1ccc(COc2ccc(-c3c(-c4ccncc4)nn4c3NCC4)cc2)c(F)c1F", "note": "[Co. 8]", "IC50": "1.58e-06"}
{"smiles": "CC(C)c1ccc(COc2ccc(-c3c(-c4ccncc4)nn4c3NCC4)cc2)cc1CC(O)CO", "note": "(stereo not shown) [Co. 9]", "IC50": "6.31e-08"}
{"molecular_target": "Ba/F3 cells containing Ros1 wild-type protein (Homo sapiens, UniProt P08922, cells depend on it, form not given)", "sequence (P08922 whole entry, stated change not applied)": "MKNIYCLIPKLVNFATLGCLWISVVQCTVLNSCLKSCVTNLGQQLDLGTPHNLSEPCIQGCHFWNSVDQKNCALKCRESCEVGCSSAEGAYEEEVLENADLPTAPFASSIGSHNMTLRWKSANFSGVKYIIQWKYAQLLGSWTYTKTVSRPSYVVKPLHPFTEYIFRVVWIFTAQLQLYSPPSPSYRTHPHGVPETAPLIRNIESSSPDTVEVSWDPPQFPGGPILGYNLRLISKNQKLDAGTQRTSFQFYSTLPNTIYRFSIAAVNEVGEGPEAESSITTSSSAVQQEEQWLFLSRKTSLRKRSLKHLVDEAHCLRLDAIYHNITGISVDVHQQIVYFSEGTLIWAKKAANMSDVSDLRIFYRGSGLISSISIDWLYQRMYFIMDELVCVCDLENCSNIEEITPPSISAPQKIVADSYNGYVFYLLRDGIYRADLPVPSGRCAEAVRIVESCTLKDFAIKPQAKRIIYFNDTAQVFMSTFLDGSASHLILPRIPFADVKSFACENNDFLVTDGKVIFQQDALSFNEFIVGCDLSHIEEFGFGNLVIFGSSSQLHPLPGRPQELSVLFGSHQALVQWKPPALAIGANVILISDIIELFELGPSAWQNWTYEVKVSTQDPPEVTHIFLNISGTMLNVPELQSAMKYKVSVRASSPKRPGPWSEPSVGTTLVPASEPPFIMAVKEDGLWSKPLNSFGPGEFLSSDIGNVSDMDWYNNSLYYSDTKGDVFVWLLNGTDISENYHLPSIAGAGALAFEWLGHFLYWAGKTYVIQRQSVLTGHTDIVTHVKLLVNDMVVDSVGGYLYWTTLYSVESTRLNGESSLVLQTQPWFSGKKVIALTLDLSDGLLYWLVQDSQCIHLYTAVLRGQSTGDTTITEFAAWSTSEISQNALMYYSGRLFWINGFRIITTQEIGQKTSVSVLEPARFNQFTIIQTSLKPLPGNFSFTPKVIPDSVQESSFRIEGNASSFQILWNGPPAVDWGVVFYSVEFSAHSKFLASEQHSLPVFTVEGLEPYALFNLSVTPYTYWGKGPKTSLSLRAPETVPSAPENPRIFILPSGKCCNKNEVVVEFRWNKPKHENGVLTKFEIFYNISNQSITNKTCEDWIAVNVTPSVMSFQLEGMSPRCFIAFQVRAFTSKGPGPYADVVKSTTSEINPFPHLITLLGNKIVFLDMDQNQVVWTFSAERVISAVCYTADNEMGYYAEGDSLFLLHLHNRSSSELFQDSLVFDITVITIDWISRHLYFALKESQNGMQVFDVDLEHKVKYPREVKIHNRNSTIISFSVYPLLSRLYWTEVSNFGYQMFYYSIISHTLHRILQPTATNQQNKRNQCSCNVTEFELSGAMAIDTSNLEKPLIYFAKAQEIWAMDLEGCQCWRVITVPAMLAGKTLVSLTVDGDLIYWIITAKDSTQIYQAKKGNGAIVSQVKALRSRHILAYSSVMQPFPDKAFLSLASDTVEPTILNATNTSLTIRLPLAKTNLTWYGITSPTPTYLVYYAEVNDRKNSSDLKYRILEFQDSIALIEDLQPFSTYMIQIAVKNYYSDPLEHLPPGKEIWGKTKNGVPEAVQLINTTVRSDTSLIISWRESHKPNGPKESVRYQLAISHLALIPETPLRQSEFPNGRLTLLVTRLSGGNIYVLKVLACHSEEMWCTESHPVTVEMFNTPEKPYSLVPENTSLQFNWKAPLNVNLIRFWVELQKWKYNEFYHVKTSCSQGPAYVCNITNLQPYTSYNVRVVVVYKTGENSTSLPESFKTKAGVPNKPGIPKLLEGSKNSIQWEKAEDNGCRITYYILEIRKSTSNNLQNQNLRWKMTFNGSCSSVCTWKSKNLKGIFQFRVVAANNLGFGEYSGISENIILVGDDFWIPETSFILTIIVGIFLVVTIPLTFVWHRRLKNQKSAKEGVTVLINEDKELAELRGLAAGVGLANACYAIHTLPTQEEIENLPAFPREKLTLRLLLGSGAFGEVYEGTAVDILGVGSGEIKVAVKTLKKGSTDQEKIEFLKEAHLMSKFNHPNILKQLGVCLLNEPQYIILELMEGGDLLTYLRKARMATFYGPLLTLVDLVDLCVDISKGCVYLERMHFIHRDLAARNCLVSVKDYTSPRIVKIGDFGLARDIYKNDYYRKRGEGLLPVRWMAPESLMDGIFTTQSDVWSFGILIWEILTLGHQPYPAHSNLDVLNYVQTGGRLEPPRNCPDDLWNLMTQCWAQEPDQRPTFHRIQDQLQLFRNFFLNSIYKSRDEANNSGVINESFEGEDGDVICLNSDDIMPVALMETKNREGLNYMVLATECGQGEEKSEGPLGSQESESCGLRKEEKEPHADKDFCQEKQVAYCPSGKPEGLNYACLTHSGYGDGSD", "assay": "Ba/F3-Ros1 cell proliferation assay, wild-type Ros1, without IL-3", "format": "cell-based, murine", "settings": "-log IC50 (M); wild-type Ros1, no IL-3, 24 h, Alamar Blue", "method": "(§1) This assay was carried out with Ba/F3 cells containing three different versions of Ros1: the wild-type protein, protein with a mutation at the gatekeeper residue (L2026M), and protein with a mutation identified in a tumor from a patient that became resistant to crizotinib (Xalkori®) treatment (G2032R). Compounds were solubilized in 100% DMSO (dimethyl sulfoxide) and sprayed into polystyrene, tissue culture treated 384-well plates. A 50 μl volume of cell culture medium (phenol red free RPMI-1640, 10% FBS (fetal bovine serum), 2 mM L-Glutamine) containing 20000 Ba/F3-Ros1 cells was added to each well and the plates were placed in an incubator at 37° C. and 5% CO2. After 24 hours, 10 μl of Alamar Blue solution (0.5 mM K3Fe(CN)6, 0.5 mM K4Fe(CN)6, 0.15 mM Resazurin and 100 mM Phosphate Buffer) was added to the wells, incubated for 4 hours at 37° C. and 5% CO2 before RFU's (Relative Fluorescence Units) (ex. 540 nm., em. 590 nm.) were measured in a fluorescence plate reader."}
{"smiles": "CC(C)c1ccc(COc2cc(F)c(-c3c(-c4ccncc4)nn4c3NCC4)cc2F)cc1", "note": "[Co. 2]", "BaF3-ROS1 − IL3 pIC50": "~8.03"}
{"smiles": "CC(C)c1ccc(COc2ccc(-c3c(-c4ccncc4)nn4c3NCC4)c(C#N)c2)cc1", "note": "[Co. 3]", "BaF3-ROS1 − IL3 pIC50": 7.2}
{"smiles": "CC(C)c1ccc(COc2ccc(-c3c(-c4ccncc4)nn4c3NCC4)cn2)cc1", "note": "[Co. 4]", "BaF3-ROS1 − IL3 pIC50": 7.1}
{"smiles": "CC(C)c1ccc(COc2ccc(-c3c(-c4ccncc4)nn4c3NCC4)c(F)c2)cc1", "note": "[Co. 5]", "BaF3-ROS1 − IL3 pIC50": 7.1}
{"smiles": "CC(C)c1ccc(COc2ccc(-c3c(-c4ccncc4)nn4c3NCC4)cc2)cc1C#N", "note": "[Co. 6]", "BaF3-ROS1 − IL3 pIC50": 6.7}
{"smiles": "CC(C)c1ccc(COc2ccc(-c3c(-c4ccncc4)nn4c3NCC4)cc2)c(F)c1F", "note": "[Co. 8]", "BaF3-ROS1 − IL3 pIC50": 6.3}
{"smiles": "CC(C)c1ccc(COc2ccc(-c3c(-c4ccncc4)nn4c3NCC4)cc2)cc1CC(O)CO", "note": "(stereo not shown) [Co. 9]", "BaF3-ROS1 − IL3 pIC50": 7.3}
{"system": "Ba/F3 cells containing Ros1 wild-type protein + IL-3", "assay": "Ba/F3-Ros1 cell proliferation counter-screen, wild-type Ros1 in the presence of murine IL-3", "format": "cell-based", "settings": "Mus musculus, BaF3, 24 h; -log IC50 (M); wild-type Ros1, 10 ng/ml murine IL-3 (counter-screen); read-out: BaF3-ROS1 + IL3 pIC50 (converted)", "method": "as §1\nAs a counter-screen the same experiment was performed for the wild-type protein in the presence of 10 ng/ml murine IL-3.", "units": {"CC50": "M"}}
{"smiles": "CC(C)c1ccc(COc2cc(F)c(-c3c(-c4ccncc4)nn4c3NCC4)cc2F)cc1", "note": "[Co. 2]", "CC50": "> 1e-05"}
{"smiles": "CC(C)c1ccc(COc2ccc(-c3c(-c4ccncc4)nn4c3NCC4)c(C#N)c2)cc1", "note": "[Co. 3]", "CC50": "> 1e-05"}
{"smiles": "CC(C)c1ccc(COc2ccc(-c3c(-c4ccncc4)nn4c3NCC4)cn2)cc1", "note": "[Co. 4]", "CC50": "1.26e-06"}
{"smiles": "CC(C)c1ccc(COc2ccc(-c3c(-c4ccncc4)nn4c3NCC4)c(F)c2)cc1", "note": "[Co. 5]", "CC50": "> 1e-05"}
{"smiles": "CC(C)c1ccc(COc2ccc(-c3c(-c4ccncc4)nn4c3NCC4)cc2)cc1C#N", "note": "[Co. 6]", "CC50": "> 1e-05"}
{"smiles": "CC(C)c1ccc(COc2ccc(-c3c(-c4ccncc4)nn4c3NCC4)cc2)c(F)c1F", "note": "[Co. 8]", "CC50": "3.98e-06"}
{"smiles": "CC(C)c1ccc(COc2ccc(-c3c(-c4ccncc4)nn4c3NCC4)cc2)cc1CC(O)CO", "note": "(stereo not shown) [Co. 9]", "CC50": "> 1e-05"}
{"molecular_target": "Ba/F3 cells containing Ros1 L2026M (Homo sapiens, UniProt P08922, L2026M, cells depend on it, form not given)", "sequence (P08922 whole entry L2026M, form open)": "as the sequence (P08922 whole entry, stated change not applied) above, with L2026M counted along it", "assay": "Ba/F3-Ros1 cell proliferation assay, L2026M gatekeeper mutant", "format": "cell-based, murine", "settings": "-log IC50 (M), no IL-3", "method": "as §1"}
{"smiles": "CC(C)c1ccc(COc2cc(F)c(-c3c(-c4ccncc4)nn4c3NCC4)cc2F)cc1", "note": "[Co. 2]", "Ba/F3 Ros1 L2026M (-IL-3) pIC50": 7.7}
{"smiles": "CC(C)c1ccc(COc2ccc(-c3c(-c4ccncc4)nn4c3NCC4)c(C#N)c2)cc1", "note": "[Co. 3]", "Ba/F3 Ros1 L2026M (-IL-3) pIC50": 6.6}
{"smiles": "CC(C)c1ccc(COc2ccc(-c3c(-c4ccncc4)nn4c3NCC4)cn2)cc1", "note": "[Co. 4]", "Ba/F3 Ros1 L2026M (-IL-3) pIC50": 7.1}
{"smiles": "CC(C)c1ccc(COc2ccc(-c3c(-c4ccncc4)nn4c3NCC4)c(F)c2)cc1", "note": "[Co. 5]", "Ba/F3 Ros1 L2026M (-IL-3) pIC50": "<5"}
{"smiles": "CC(C)c1ccc(COc2ccc(-c3c(-c4ccncc4)nn4c3NCC4)cc2)cc1C#N", "note": "[Co. 6]", "Ba/F3 Ros1 L2026M (-IL-3) pIC50": 6.4}
{"smiles": "CC(C)c1ccc(COc2ccc(-c3c(-c4ccncc4)nn4c3NCC4)cc2)c(F)c1F", "note": "[Co. 8]", "Ba/F3 Ros1 L2026M (-IL-3) pIC50": 7.5}
{"smiles": "CC(C)c1ccc(COc2ccc(-c3c(-c4ccncc4)nn4c3NCC4)cc2)cc1CC(O)CO", "note": "(stereo not shown) [Co. 9]", "Ba/F3 Ros1 L2026M (-IL-3) pIC50": 5.5}
{"molecular_target": "Ba/F3 cells containing Ros1 G2032R (Homo sapiens, UniProt P08922, G2032R, cells depend on it, form not given)", "sequence (P08922 whole entry G2032R, form open)": "as the sequence (P08922 whole entry, stated change not applied) above, with G2032R counted along it", "assay": "Ba/F3-Ros1 cell proliferation assay, G2032R mutant", "format": "cell-based, murine", "settings": "-log IC50 (M), no IL-3", "method": "as §1"}
{"smiles": "CC(C)c1ccc(COc2ccc(-c3c(-c4ccncc4)nn4c3NCC4)c(F)c2)cc1", "note": "[Co. 5]", "Ba/3 Ros1 G2032R (-IL-3) pIC50": 6.7}
{"system": "HCC78 non-small cell lung cancer cells", "assay": "HCC78 cell proliferation assay", "format": "cell-based", "settings": "Homo sapiens, HCC78, 96 h; -log EC50 (M); 4 days, MTT; read-out: HCC-78 PROL pEC50 (converted)", "method": "Approximately 1000 HCC78 non-small cell lung cancer cells in 180 μl of cell culture medium (RPMI-1640, 10% FBS, 2 mM L-Glutamine, 10 mM Hepes, 1 mM sodium pyruvate, 4.5 g/L glucose, 1.5 g/L sodium bicarbonate, 25 μg/ml Gentamycin) were seeded in each well of a 96-well polystyrene, tissue-culture treated plate and incubated at 37° C. and 5% CO2. After 24 hours, compounds were diluted in cell culture medium from which 20 μl was added to the wells containing cells and incubated for 4 days at 37° C. and 5% CO2. A 5 mg/ml solution of the tetrazolium dye MTT was prepared in PBS (phosphate-buffered saline) and 25 μl was added to each well. After 2 hours the medium was removed and replaced by 125 μL of 4/1 DMSO/glycine buffer (0.1M glycine, 0.1M NaCl, pH 10.5) before absorbance was determined at 538 nm.", "units": {"EC50": "M"}}
{"smiles": "CC(C)c1ccc(COc2cc(F)c(-c3c(-c4ccncc4)nn4c3NCC4)cc2F)cc1", "note": "[Co. 2]", "EC50": "1.26e-08"}
{"smiles": "CC(C)c1ccc(COc2ccc(-c3c(-c4ccncc4)nn4c3NCC4)cn2)cc1", "note": "[Co. 4]", "EC50": "6.31e-07"}
{"smiles": "CC(C)c1ccc(COc2ccc(-c3c(-c4ccncc4)nn4c3NCC4)c(F)c2)cc1", "note": "[Co. 5]", "EC50": "7.94e-07"}
{"smiles": "CC(C)c1ccc(COc2ccc(-c3c(-c4ccncc4)nn4c3NCC4)cc2)c(F)c1F", "note": "[Co. 8]", "EC50": "2e-06"}
{"smiles": "CC(C)c1ccc(COc2ccc(-c3c(-c4ccncc4)nn4c3NCC4)cc2)cc1CC(O)CO", "note": "(stereo not shown) [Co. 9]", "EC50": "5.01e-07"}
{"system": "not given", "assay": "not given", "settings": "not given", "units": {"melting point": "°C"}}
{"smiles": "CC(C)c1ccc(COc2cc(F)c(-c3c(-c4ccncc4)nn4c3NCC4)cc2F)cc1", "note": "[Co. 2]", "melting point": 153}
{"smiles": "CC(C)c1ccc(COc2ccc(-c3c(-c4ccncc4)nn4c3NCC4)c(C#N)c2)cc1", "note": "[Co. 3]", "melting point": 191}
{"smiles": "CC(C)c1ccc(COc2ccc(-c3c(-c4ccncc4)nn4c3NCC4)cn2)cc1", "note": "[Co. 4]", "melting point": 159}
{"smiles": "CC(C)c1ccc(COc2ccc(-c3c(-c4ccncc4)nn4c3NCC4)c(F)c2)cc1", "note": "[Co. 5]", "melting point": 141}
{"smiles": "CC(C)c1ccc(COc2ccc(-c3c(-c4ccncc4)nn4c3NCC4)cc2)cc1C#N", "note": "[Co. 6]", "melting point": 158}
{"smiles": "CC(C)c1ccc(COc2ccc(-c3c(-c4ccncc4)nn4c3NCC4)cc2)c(F)c1F", "note": "[Co. 8]", "melting point": 149}
